According to ChEMBL document CHEMBL1201862, “PubChem BioAssay data set” (2004):
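1) Cells in 96-well plates. 2) Compound, 48 h, 5 concentrations. 3) Linear interpolation between surrounding doses. 4) Unreached endpoint = highest concentration. At the GI50, growth is halved.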 The source made the active and inactive calls. Cut-off read from the data, not from the text of the source: active = GI50 up to about 1.1 µM and inactive = higher.

How the values were obtained:
Assay in all cases: NCI tumour cell line growth inhibition, 48 h
Hs-578T = tested on: Hs-578T
M14 = tested on: M14
UACC-257 = tested on: UACC-257
SF-539 = tested on: SF-539
MCF7 = tested on: MCF7
SW-620 = tested on: SW-620
IGROV-1 = tested on: IGROV-1
U-251 = tested on: U-251
HL-60 = tested on: HL-60
SK-MEL-2 = tested on: SK-MEL-2
786-0 = tested on: 786-0
OVCAR-5 = tested on: OVCAR-5
EKVX = tested on: EKVX
BT-549 = tested on: BT-549
HCC 2998 = tested on: HCC 2998
K562 = tested on: K562
SNB-75 = tested on: SNB-75
SNB-78 = tested on: SNB-78
NCI-H226 = tested on: NCI-H226
RXF 393 = tested on: RXF 393

| Compound | GI50 (Hs-578T) | GI50 (M14) | GI50 (UACC-257) | GI50 (SF-539) | GI50 (MCF7) | GI50 (SW-620) | GI50 (IGROV-1) | GI50 (U-251) | GI50 (HL-60) | GI50 (SK-MEL-2) | GI50 (786-0) | GI50 (OVCAR-5) | GI50 (EKVX) | GI50 (BT-549) | GI50 (HCC 2998) | GI50 (K562) | GI50 (SNB-75) | GI50 (SNB-78) | GI50 (NCI-H226) | GI50 (RXF 393) |
| --- | --- | --- | --- | --- | --- | --- | --- | --- | --- | --- | --- | --- | --- | --- | --- | --- | --- | --- | --- | --- |
| O=C1/C(=C/c2ccccc2)CN(C(=O)/C=C/c2ccccc2)C/C1=C\c1ccccc1 | 4.27 µM (inactive) | 3.63 µM (inactive) | 12.7 µM (inactive) | 9.75 µM (inactive) | 1.75 µM (inactive) | 2.39 µM (inactive) | 6.95 µM (inactive) | 3.59 µM (inactive) | 4.44 µM (inactive) | 21.4 µM (inactive) | 4.09 µM (inactive) | 17.6 µM (inactive) | 24.5 µM (inactive) | 2.26 µM (inactive) | 3.55 µM (inactive) | 2.98 µM (inactive) | 13.5 µM (inactive) | 22 µM (inactive) | 18.8 µM (inactive) | 15.6 µM (inactive) |
| O=C1c2cccc3cc([N+](=O)[O-])cc(c23)C(=O)N1CCCN1CCN(CCCN2C(=O)c3cccc4cc([N+](=O)[O-])cc(c34)C2=O)CC1 |  | 0.706 µM (active) | 0.585 µM (active) | 0.313 µM (active) |  | 0.0284 µM (active) | 0.0628 µM (active) | 0.0248 µM (active) | 0.34 µM (active) | 0.23 µM (active) | 0.0594 µM (active) | 1.65 µM (inactive) | 0.612 µM (active) |  | 0.0625 µM (active) | 0.0232 µM (active) | 1.38 µM (inactive) | 0.303 µM (active) | 0.0702 µM (active) | 0.0933 µM (active) |
| COC(=O)C(=O)C(C#N)c1cccc(Cl)c1 (stereo not given) |  | > 100 µM (inactive) | > 100 µM (inactive) | > 100 µM (inactive) |  | > 100 µM (inactive) | > 100 µM (inactive) | > 100 µM (inactive) | > 100 µM (inactive) | > 100 µM (inactive) | > 100 µM (inactive) | > 100 µM (inactive) | > 100 µM (inactive) |  | > 100 µM (inactive) | > 100 µM (inactive) | > 100 µM (inactive) | > 100 µM (inactive) | > 100 µM (inactive) | > 100 µM (inactive) |
| CN1CCN(C)C12C=CC=CC21CC1 |  | > 100 µM (inactive) | > 100 µM (inactive) | > 100 µM (inactive) |  | > 100 µM (inactive) | > 100 µM (inactive) | > 100 µM (inactive) | > 100 µM (inactive) | > 100 µM (inactive) | > 100 µM (inactive) | > 100 µM (inactive) | > 100 µM (inactive) |  | > 100 µM (inactive) | > 100 µM (inactive) | > 100 µM (inactive) | > 100 µM (inactive) | > 100 µM (inactive) | > 100 µM (inactive) |
| N/C(=C\c1ccc(OCc2ccccc2)c(OCc2ccccc2)c1[N+](=O)[O-])C(=O)O |  | > 100 µM (inactive) | > 100 µM (inactive) | > 100 µM (inactive) |  | > 100 µM (inactive) | > 100 µM (inactive) | > 100 µM (inactive) | > 100 µM (inactive) | > 100 µM (inactive) | > 100 µM (inactive) | > 100 µM (inactive) | > 100 µM (inactive) |  | > 100 µM (inactive) | > 100 µM (inactive) | > 100 µM (inactive) | > 100 µM (inactive) | > 100 µM (inactive) | > 100 µM (inactive) |
| C[N+](C)(C)CC(=O)N/N=C(\C(=O)NC1=C(Cl)C(=O)c2ccccc2C1=O)C(C#N)c1nc(-c2ccc([N+](=O)[O-])cc2)cs1 (stereo not given) | 7.85 µM (inactive) | 3.15 µM (inactive) | 3.18 µM (inactive) | 8.38 µM (inactive) | 5.41 µM (inactive) | 8.15 µM (inactive) | 6.71 µM (inactive) | 6.97 µM (inactive) | 5.73 µM (inactive) | 4.46 µM (inactive) | 8.63 µM (inactive) | 13.1 µM (inactive) | 14.1 µM (inactive) | 3.77 µM (inactive) | 14.1 µM (inactive) | 10.8 µM (inactive) | 7.23 µM (inactive) | 11.3 µM (inactive) | 11.4 µM (inactive) | 11.2 µM (inactive) |
| Cc1c2ccncc2c(C)c2c1[nH]c1ccc(Oc3ccccc3)cc12 |  | 1.82 µM (inactive) | 2.45 µM (inactive) | 1.88 µM (inactive) |  | 2.67 µM (inactive) | 4.13 µM (inactive) | 1.67 µM (inactive) | 1.85 µM (inactive) | 1.66 µM (inactive) | 1.78 µM (inactive) | 1.86 µM (inactive) | 5.82 µM (inactive) |  | 1.94 µM (inactive) | 1.92 µM (inactive) | 2.86 µM (inactive) | 2.28 µM (inactive) | 14.3 µM (inactive) | 1.86 µM (inactive) |
